The text below walks through data of ChEMBL document CHEMBL1268973, “Flavonoids from Dracocephalum tanguticum and their cardioprotective effects against doxorubicin-induced toxicity in H9c2 cells” (Bioorg Med Chem Lett, 2010).

The subject of test [1] is H9c2. Put plainly: Cytoprotective activity against doxorubicin-induced cytotoxicity in rat H9c2 cells assessed as cell viability after 24 hrs by MTT assay. The test is classed as functional, cell-based. Background: Tetrazolium dyes change colour on reduction, which living cells bring about.
Test [2] is described as follows: Antioxidant activity assessed as ABTS radical scavenging activity. Type of test: functional.
Test [3] can be described thus: Antioxidant activity assessed as ferrous ion chelating activity. Type of test: functional.
For test [4], the system named is Radical scavenging activity. Put plainly: Antioxidant activity of the compound assessed as DPPH radical scavenging activity after 30 mins. The test is classed as functional. In general terms: DPPH is a stable violet radical that fades when it is reduced.
Test [5] relates to H9c2. In words: Cytoprotective activity against rat H9c2 cells assessed as reduction in doxorubicin-induced CK release at 5 to 20 uM after 24 hrs. Type of test: functional, cell-based.
Test [6] has as its system H9c2. In words: Cytoprotective activity against rat H9c2 cells assessed as inhibition of doxorubicin-induced morphological changes at 10 to 40 uM after 24 hrs. Type of test: functional, cell-based.
Test [7] concerns H9c2. Put plainly: Cytoprotective activity against rat H9c2 cells assessed as inhibition of doxorubicin-induced intracellular Ca2+ elevation. Type of test: functional, cell-based.
Test [8] concerns H9c2. In words: Cytoprotective activity against rat H9c2 cells assessed as inhibition of doxorubicin-induced intracellular ROS elevation at 5 to 20 uM after 24 hrs. The test is classed as functional, cell-based.
The test system of test [9] is H9c2. Put plainly: Cytoprotective activity against in rat H9c2 cells assessed as inhibition of doxorubicin-induced cell death after 24 hrs by MTT assay. The test is classed as functional, cell-based.
Test [10] concerns H9c2. Put plainly: Cytoprotective activity against rat H9c2 cells assessed as reduction in doxorubicin-induced LDH release at 5 to 20 uM after 24 hrs. Type of test: functional, cell-based.
Test [11] has as its system H9c2. Put plainly: Effect on doxorubicin-induced total apoptosis in rat H9c2 cells at 20 uM. The test is classed as functional, cell-based.
Setting [12] is: Rattus norvegicus, H9c2, 24 h, read-out: EC50.

One may read the EC50 as the concentration giving half of the maximal effect.

Activity calls are given as the source filed them. No cut-off for these calls is given here.

For `O=C1C[C@@H](c2cc(O)cc(O)c2)Oc2cc(O)cc(O)c21`, the EC50 entry in test [1] (h9c2) was “Not Active”; in test [2] it was 16.3 µM; in [3], 161000 µM; in [4], 32.1 µM.
With `COc1cc2oc(-c3ccc(O)c(O[C@@H]4O[C@H](CO)[C@@H](O)[C@H](O)[C@H]4O)c3)cc(=O)c2c(O)c1O`, the concentration giving a half-maximal response (EC50) in test [1] (setting [12]) came to 13.1 µM; in [2], 15.7 µM; in test [3] it was 60 µM; in test [4], 31 µM.
In the case of `COc1ccc(-c2cc(=O)c3c(O)cc(O[C@@H]4O[C@H](CO)[C@@H](O)[C@H](O)[C@H]4O)cc3o2)cc1` [TILIANINE], the concentration giving a half-maximal response (EC50) result was “Not Active” in test [1] (h9c2), 400 µM in test [2] and 95 µM in test [4].
As for `O=c1cc(-c2ccc(O)c(O)c2)oc2cc(O)cc(O)c12` [LUTEOLIN], the half-maximal effective concentration (EC50) was 5.53 µM in test [1] (setting [12]), 105 µM in test [2], 12000 µM in test [3] and 6.12 µM in [4].
The like results for `O=C1C[C@@H](c2ccc(O)c(O)c2)Oc2cc(O[C@@H]3O[C@H](CO)[C@@H](O)[C@H](O)[C@H]3O)cc(O)c21` were, in that order, 38.2 µM, 7.26 µM, 213000 µM and 15.6 µM.
For the compound `COc1cc2oc(-c3ccc(O)cc3)cc(=O)c2c(O)c1O`, the EC50 result in test [1] (h9c2) was “Not Active”; in [2] it was 13.4 µM; in test [4], 20 µM.
For `COc1cc2oc(-c3ccc(O)cc3)cc(=O)c2c(O)c1O[C@@H]1O[C@H](CO)[C@@H](O)[C@H](O)[C@H]1O`, in that order: “Not Active”, 581 µM and 159 µM.
In the case of `O=c1cc(-c2ccc(O)cc2)oc2cc(O[C@@H]3O[C@H](CO)[C@@H](O)[C@H](O)[C@H]3O)cc(O)c12` [APIGETRIN], the results for the EC50 in test [1] (setting [12]), in [2] and in [4] were 12.3 µM, 13.1 µM and 20.4 µM, respectively.
Take `COc1cc2oc(-c3ccc(O)c(O)c3)cc(=O)c2c(O)c1O[C@@H]1O[C@H](CO)[C@@H](O)[C@H](O)[C@H]1O`: the half-maximal effective concentration (EC50) entry in test [1] (h9c2) was “Not Active”; in test [2], 86.1 µM; in [3], 27600 µM; in test [4] it was 81.2 µM.
In the case of `O=C1C[C@@H](c2ccc(O)cc2)Oc2cc(O[C@@H]3O[C@H](CO)[C@@H](O)[C@H](O)[C@H]3O)cc(O)c21` [PRUNIN], the concentration for a half-maximal effect (EC50) result in test [1] (h9c2) was “Not Active”; in test [2] it was 18.1 µM; in test [4], 40.6 µM.
Consider `O=c1cc(-c2ccc(O)c(O)c2)oc2cc(O[C@@H]3O[C@H](CO)[C@@H](O)[C@H](O)[C@H]3O)cc(O)c12` [GALUTEOLIN], for which the result in test [5], in [6], in [8] and in test [10] was Active. In addition, the Activity entry in test [7] is “Dose-dependent effect”. In addition, the EC50 in test [1] (setting [12]) worked out at 5.04 µM; in [2], 56.5 µM; in test [3] it was 1100 µM; in test [4], 3.94 µM. Besides, the outcome in test [9] and in test [11] was inactive.
For `COc1cc2oc(-c3ccc(O)cc3)cc(=O)c2c(O)c1O[C@@H]1O[C@H](COC(C)=O)[C@@H](O)[C@H](O)[C@H]1O`, the concentration giving a half-maximal response (EC50) entry in test [1] (h9c2) is “Not Active”; in test [2], 12.3 µM; in [3], 4510 µM; in [4], 113 µM.
As to `O=C1C[C@@H](c2ccc(O)c(O)c2)Oc2cc(O)cc(O)c21` [ERIODICTYOL], the EC50 in [1] (setting [12]) stood at 25.5 µM; in test [2] it was 1.15 µM; in test [3], 8370 µM; in [4], 98.8 µM.
The like results for `CCOC(=O)[C@H]1O[C@@H](Oc2cc(O)c3c(=O)cc(-c4ccc(O)c(O)c4)oc3c2)[C@H](O)[C@@H](O)[C@@H]1O` were, in that order, 6.34 µM, 87.8 µM, 3310 µM and 13.2 µM.
As for `O=C1C[C@@H](c2ccc(O)cc2)Oc2cc(O)cc(O)c21` [NARINGENIN], the 50% effective concentration (EC50) entry in test [1] (h9c2) was “Not Active”; in [2], 13.5 µM; in test [3], 21400 µM; in test [4] it was 72.3 µM.
On to `COc1cc2oc(-c3ccc(O)c(O)c3)cc(=O)c2c(O)c1O[C@@H]1O[C@H](COC(C)=O)[C@@H](O)[C@H](O)[C@H]1O`, for which the EC50 came to 19.1 µM in [1] (setting [12]), 76.2 µM in test [2], 1130 µM in [3] and 95.2 µM in [4].
